# Experimental data as given in paper PMC5789975, “Computer-aided Discovery of Peptides that Specifically Attack Bacterial Biofilms” (Scientific Reports, 2018).
# Like-named read-outs stand apart in the source and are kept apart here. Ends that are not written are not given here.
# Experiments:
# [1] = test system: S. aureus (MRSA SAP0017) biofilms; assay: Static microtitre plate antibiofilm screen (crystal violet); type: cell-based, Staphylococcus aureus; details: SPOT-synthesized, highest peptide concentration evaluated, compared to untreated controls; listed from most to least active
# Description: The SPOT-synthesized peptides were evaluated for their antibiofilm activity in vitro as described previously. Briefly, 5 μl of SPOT-peptide stock solution or a corresponding serial dilution was placed in a 96-well polypropylene round bottom plate (Corning Inc. Corning, NY) and 95 μl of a 1/100 dilution of an overnight culture of MRSA SAP0017 in TSB supplemented with 1% glucose was added to each well. The plates were incubated overnight at 37 °C to allow for bacterial growth and biofilm maturation. After 24 hours, the media containing planktonic bacteria was rinsed from each well with distilled water and the remaining biomass was stained with 0.1% crystal violet. The unbound dye was rinsed away and the biofilm bound dye was suspended in 70% ethanol and the absorbance at 595 nm was recorded on a plate reader. Percent biofilm inhibition was calculated by comparison to the amount of crystal violet stain in the untreated controls (defined as 100%) and the sterility control wells (defined as 0%). Results from three separate biological replicates were averaged and outliers were identified using the modified Thompson Tau test and removed from the analysis. The antibiofilm activity of all SPOT-derived peptides was assessed at multiple concentrations (up to five 2-fold dilutions from the stock solution) and the peptide concentration yielding the largest difference in percent inhibition of biofilm growth was used in subsequent analysis.
# [2] = test system: planktonic S. aureus MRSA (SAP0017); assay: MIC determination, broth microdilution; type: cell-based, Staphylococcus aureus; details: for MIC, MHB: Mueller Hinton Broth; for MIC, MHB / MIC, TSB with 1% Glucose: broth microdilution, ~5 × 10^5 CFU/ml, 37 °C overnight, visual read, mean of three biological replicates; for MIC, TSB with 1% Glucose: Tryptic Soy Broth with 1% glucose; for MIC: Staphylococcus aureus, MRSA
# Description: The MIC of the synthesized peptides was determined in both Mueller Hinton Broth (MHB) and Tryptic Soy Broth (TSB) supplemented with 1% glucose, using the broth microdilution method[21] with slight modifications. Briefly, 10 μl of a 10× concentrated peptide stock solution, vancomycin antibiotic, or vehicle control (water) was placed in the bottom of a well in a 96-well polypropylene round bottom plate (Corning Inc. Corning, NY). A bacterial suspension of S. aureus MRSA (SAP0017, clinical isolate kindly provided by Dr. Tony Chow, Vancouver General Hospital) was prepared from an overnight culture to a final cell density of ~5 × 10^5 CFU/ml and 90 μl of this was added to each well.
# MRSA USA300 LAC = assay: Murine cutaneous abscess model; type: in vivo, CD-1 mice; details: 14 mg/kg
# Description: The in vivo activity of the identified antibiofilm peptide 3002 and the parental compound 1018 was evaluated using a recently described murine abscess model of chronic MRSA infections. All animal experiments were performed in accordance with The Canadian Council on Animal Care (CCAC) guidelines and were approved by the University of British Columbia Animal Care Committee. Briefly, the fur on the backs of 6-week old female CD-1 mice (Charles River Laboratories, Wilmington, MA) was removed by shaving and subsequent treatment with depilatory cream. MRSA USA300 LAC was grown to an optical density at 600 nm of 1 in tryptic soy broth (TSB) at which point cells were washed twice with sterile PBS and then suspended in PBS to a final cell density of 5 × 10^7 CFU/50 μL. Mice were infected with 50 μL of bacteria subcutaneously on the right flank of the back and 1 hour later, given saline (for controls) or treated with 14 mg/kg peptide (1018 or 3002) via intra-abscess injection. Mice were monitored daily and their weight as well as abscess lesion sizes (measured using a caliper) were recorded every 24 hrs. Visible dermonecrosis or white lesions (filled with pus) were considered as part of the abscess lesion while swelling/inflammation was disregarded in the abscess size measurements. Three days post-infection, abscesses were excised and homogenized using a Bead Ruptor 4 tissue homogenizer (OMNI International, Kennesaw GA) for 5 minutes and serially plated for viable CFU quantification.
# [3] = test system: S. aureus (MRSA SAP0017) biofilms; assay: Static microtitre plate antibiofilm screen (crystal violet); type: cell-based, Staphylococcus aureus
# [4] = test system: MRSA SAP0017 biofilms grown in flow cells; assay: Eradication of pre-formed biofilms in flow cells; type: cell-based, Staphylococcus aureus; details: BM2 media, SYTO-9/propidium iodide, confocal microscopy
# Description: Bacterial biofilms were grown in BM2 media (62 mM potassium phosphate buffer, pH 7, 7 mM (NH4)2SO4, 2 mM MgSO4, 10 μM FeSO4 and 0.4% (wt/vol) glucose) for 48 hours followed by treatment with peptide (2 or 0.125 µM) for an additional 24 hours. The samples were stained with SYTO-9 and propidium iodide fluorescent dyes to image total and dead cells, respectively. Flow-cell images were acquired on an Olympus FluoView FV1000 confocal laser scanning microscope (Olympus Corp. Tokyo, Japan) and were analyzed with the Fiji software package.
# [5] = test system: IL-1β production from LPS-stimulated PBMCs; assay: Suppression of IL-1β from LPS-stimulated PBMCs (ELISA); type: cell-based, human; details: PBMCs stimulated with 10 ng/ml P. aeruginosa PAO1 LPS; 10, 20, 40 µM peptide; six donors
# Description: (§1) The cytotoxicity and immunomodulatory activity of both 1018 and 3002 was assessed as described previously. Briefly, peripheral blood mononuclear cells (PBMCs) were collected from healthy volunteers in accordance with the University of British Columbia ethics guidelines. PBMCs were plated in Costar 96-well flat bottom tissue culture treated plates at a final density of 1 × 10^6 cells/ml in RPMI media supplemented with 10% fetal bovine serum. Both peptides were tested at final concentrations of 40, 20 and 10 µM. Cytotoxicity was assessed using the Cytotoxicity Detection Kit (Roche Diagnostics, Basel, Switzerland) which measures lactate dehydrogenase activity released from damaged cells. Immune modulation was characterized by measuring the production of MCP-1 chemokine by induced by peptide alone as well as the suppression of interleukin (IL)-1β from PBMCs stimulated with 10 ng/ml Pseudomonas aeruginosa PAO1 lipopolysaccharide. Levels of MCP-1 and IL-1β were quantified by enzyme linked immunosorbent assays (ELISAs) using kits from eBioscience Inc. (San Diego, CA).
# [6] = test system: MCP-1 production from PBMCs; assay: MCP-1 chemokine induction by peptide alone (ELISA); type: cell-based, human; details: highest peptide concentration evaluated (40 µM), compared to 1018; six donors
# Description: as §1
Molecule,antibiofilm activity of SPOT-synthesized Experimental Validation Set peptides [1],"MIC, MHB [2]","MIC, TSB with 1% Glucose [2]",also measured
"WIIRWIKIWLKI [compound 46, Experimental Validation Set peptide]",exhibited antibiofilm activity,,,
"IQRWWKVWLKVI-NH2 [compound 3004, QSAR–predicted antibiofilm peptide, >95% purity, C-terminally amidated]",exhibited antibiofilm activity,4 µM,16 µM,
"LIVIQLLKKWWK [compound 41, Experimental Validation Set peptide]",exhibited antibiofilm activity,,,
"VIKVLIKRWLKL [compound 9, Experimental Validation Set peptide]",exhibited antibiofilm activity,,,
"VLQIKKVLRLLL [compound 17, Experimental Validation Set peptide]",exhibited antibiofilm activity,,,
"VIKWLLKILRAI-NH2 [compound 3001, QSAR–predicted antibiofilm peptide, >95% purity, C-terminally amidated]",exhibited antibiofilm activity,1 µM,2 µM,
"LWQLWLKLKLKG [compound 56, Experimental Validation Set peptide]",exhibited antibiofilm activity,,,
"CN[C@H](CC(C)C)C(=O)N[C@H]1C(=O)N[C@@H](CC(N)=O)C(=O)N[C@H]2C(=O)N[C@H]3C(=O)N[C@H](C(=O)N[C@H](C(=O)O)c4cc(O)cc(O)c4-c4cc3ccc4O)[C@H](O)c3ccc(c(Cl)c3)Oc3cc2cc(c3O[C@@H]2O[C@H](CO)[C@@H](O)[C@H](O)[C@H]2O[C@H]2C[C@](C)(N)[C@H](O)[C@H](C)O2)Oc2ccc(cc2Cl)[C@H]1O [Vancomycin, reference compound]",,,,"MIC ([2]; read-out: MIC, MHB): 0.34 µM; MIC ([2]; read-out: MIC, TSB with 1% Glucose): 0.68 µM"
"VQWIQIVVWRKR [compound 6, Experimental Validation Set peptide]",exhibited antibiofilm activity,,,
"RRQWRGWVRIWL-NH2 [compound 3005, QSAR–predicted antibiofilm peptide, >95% purity, C-terminally amidated]",exhibited antibiofilm activity,4 µM,64 µM,
"ILVRWIRWRIQW-NH2 [compound 3002, QSAR–predicted antibiofilm peptide, >95% purity, C-terminally amidated]",exhibited antibiofilm activity,2 µM,4 µM,"reduction of abscess lesion size compared to untreated controls (MRSA USA300 LAC; single intra-abscess injection 1 h after infection, 3 days): 2.8 fold; effect on bacterial load recovered from the abscesses (MRSA USA300 LAC; single intra-abscess injection, CFU three days post-infection): neither peptide had any effect; concentration effectively inhibiting MRSA biofilm growth (as low as) ([3]; >95% pure peptide, static microtitre plate assay): 1 µM; enhancement in antibiofilm potency compared to 1018 ([3]; >95% pure peptides, static microtitre plate assay): 8 fold; eradication of 2-day old pre-formed MRSA biofilms ([4]; 0.125 μM peptide for 24 h): effectively eradicated; eradication of 2-day old pre-formed MRSA biofilms ([4]; 2 µM peptide for 24 h): effectively eradicated; suppression of IL-1β production [5]: in a concentration dependent manner to similar levels as seen for peptide 1018; MCP-1 production induced by peptide alone [6]: induced significantly more MCP-1 production"
"IWLRLKVVLKRK-NH2 [compound 3006, QSAR–predicted antibiofilm peptide, >95% purity, C-terminally amidated]",exhibited antibiofilm activity,4 µM,32 µM,
"IKWVLRKIVQII [compound 37, Experimental Validation Set peptide]",exhibited antibiofilm activity,,,
"IQLKLIWVKRKW [compound 48, Experimental Validation Set peptide]",exhibited antibiofilm activity,,,
"VLKIKVKIWVVK-NH2 [compound 3007, QSAR–predicted antibiofilm peptide, >95% purity, C-terminally amidated]",exhibited antibiofilm activity,16 µM,>64 µM,
"GLIIKIIKKRLW [compound 26, Experimental Validation Set peptide]",exhibited antibiofilm activity,,,
"KKWQLLIKWKLR [compound 11, Experimental Validation Set peptide]",exhibited antibiofilm activity,,,
"WKKVQWLKRLLL-NH2 [compound 3003, QSAR–predicted antibiofilm peptide, >95% purity, C-terminally amidated]",exhibited antibiofilm activity,4 µM,16 µM,"residual biofilm growth ([3]; >95% pure peptide, 32 μM): ~ 40%"
"RRIIKILLWKLR [compound 10, Experimental Validation Set peptide]",exhibited antibiofilm activity,,,
